Results from patent US20260207605A1, “KRAS G12D INHIBITORS AND USES THEREOF” (Abbisko Therapeutics Co., Ltd., priority 2022, published 2026).

Legend:
[1] = system: AGS; assay: Anti-proliferative 2D CTG assay, AGS; type: cell-based; conditions: Homo sapiens, AGS, 96 h, AGS cells, 4 days incubation, read-out: AGS cell IC50
Procedure: (§1) 1.1 Day 0 Cell Culture and Plating
(§2) Cells in a logarithmic growth phase were harvested and the cells were counted by using a […]. Cell viability was tested by using a trypan blue exclusion method to ensure that cell viability was above 90%. The cell concentration was adjusted to the desired final density, and 90 μL of cell suspension was added to a 96-well plate, then the cells were incubated overnight at 37° C., 5% CO2 and 95% humidity.
(§3) 10 μL PBS was added to each well of the TO plate containing cells. The CTG reagent was thawed and the plate was equilibrated to room temperature for 30 minutes. The CTG solution of 50 µL/well was added to each well. The cells were lysed by shaking on an orbital shaker for 5 minutes. The plate was left at room temperature for 20 minutes to stabilize the luminescence signal. The TO fluorescence signal value was read.
(§4) From the 10 mM stock solution, with a ratio of 1:5, 9-point serial dilutions were performed. The 10× medium containing the compound was transferred into corresponding wells of the 96 wells. The final maximum compound concentration was […] and the final DMSO concentration was 0.1%. The 96-well plate was placed in a 37° C. incubator and incubated for 4 days.
(§5) 50 μL/well of detection reagent (CTG) was added to the cells, and the signal was read in an Envision machine.
(§6) The percent inhibition (%) at each compound concentration was calculated from the signal in the HPE and ZPE control wells and the fluorescence signal in the individual compound wells included in each assay plate. […] The compound concentration required for inhibitory concentration at 50% (IC50) was determined using a four-parameter logarithmic dose-response equation by testing the concentration of the compound and the inhibition percentage value. The endpoint value (IC50) of the reference compound was assessed in each experiment as a quality control measure. If the endpoint value is within three times the expected value, the experiment may be considered acceptable.

[2] = target: KRAS^G12D/cRAF (Homo sapiens, UniProt P01116, G12D); assay: KRAS G12D/cRAF binding test (Alphalisa); conditions: His-tagged KRAS G12D with GMPPNP, GST-tagged cRAF
KRAS^G12D/cRAF, sequence (P01116 1-188 isoform P01116-2 G12D): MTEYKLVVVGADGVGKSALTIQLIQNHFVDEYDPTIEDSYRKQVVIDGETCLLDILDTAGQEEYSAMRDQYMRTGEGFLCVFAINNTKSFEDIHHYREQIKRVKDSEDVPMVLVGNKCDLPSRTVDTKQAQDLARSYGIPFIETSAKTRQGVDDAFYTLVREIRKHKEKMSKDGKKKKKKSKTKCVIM
Procedure: The compound was dissolved in 100% DMSO at a starting concentration of 5 mM and diluted in DMSO with a 3-fold serial dilution method for a total of 8 concentration points. 1 μL of the compound or DMSO at each concentration point was added into 99 μL of the experimental buffer to obtain 10× stock solution.
The ratio for each compound concentration was calculated from the signal of the DMSO control group contained in each assay plate and the Alphalisa signal in each compound well. The compound concentration required for inhibitory concentration at 50% (IC50) was determined using a four-parameter logarithmic dose-response equation by testing the concentration of the compound and the value of the ratio. The endpoint value (IC50) of the reference compound was assessed in each experiment as a quality control measure. If the endpoint value is within three times the expected value, the experiment may be considered acceptable.

[3] = system: AsPC-1; assay: Anti-proliferative 2D CTG assay, AsPC-1; type: cell-based; conditions: Homo sapiens, ASPC1, 96 h, AsPC-1 cells, 4 days incubation, read-out: AsPC-1 cell IC50
Procedure: as §1, §2, §3, §4, §5, §6

[4] = Pharmacokinetic experiment in mice (single PO or IV administration); conditions: male, ICR, mouse, plasma
Source text: The purpose of this trial is to study the pharmacokinetic behavior of some compounds of the present invention, and the administration method is: single oral administration (PO) or intravenous administration (IV) to ICR mice.
ICR mice male N=9 original source: Shanghai Sippr-Bk Lab Animal Co., Ltd.
The compounds were weighed and dissolved in the corresponding solution (0.5% CMC+1% tween water solution or 10% PG+10% Solutol®+80% pH3 citrate buffer). The mixture was then shaken well and sonicated to prepare a 1 mg/mL stock solution. Nine mice were orally administered at a dose of 10 mg/kg or intravenously administered at a dose of 2 mg/kg after an overnight fast.
About 90 μL of blood was collected via the submandibular vein per time point, heparin sodium anticoagulant was added, the sample was placed on ice after collection, and plasma was centrifuged within 1 hour (centrifugation conditions: 8,000 rpm, 6 minutes, 2-8° C.). The blood collection timepoints were 0, 0.25, 0.5, 1, 2, 4, 6, 8 and 24 h. The samples were stored in a −20° C. refrigerator.
The plasma sample was 40 μL, 160 μL of ice-cold acetonitrile containing internal standard was added, vortexed for 3 minutes, and centrifuged at 11,000 rpm for 5 minutes. 100 μL of the supernatant was taken and added to 100 μL of water, 5 μL of the sample was taken and injected into LC/MS/MS for analysis.

With `[2H]C([2H])([2H])OCC12CCC(CN(c3nc(OCC45CC(=C)CN4CC(=C)C5)nc4c(F)c(-c5cc(O)cc6ccc(F)c(C#C)c56)nc(OC)c34)C1)N2` (single isomer, unassigned) [Example 173] the IC50 [1] was 26.4 nM.

Work on `[2H]C([2H])([2H])OCC12CCC(CN(c3nc(OCC45CC(=C)CN4CC(=C)C5)nc4c(F)c(-c5cc(O)cc6ccc(F)c(C#C)c56)ncc34)C1)N2` (stereo not drawn) [Example 1, 4-(2-((2,6-dimethylenetetrahydro-1H-pyrrolizin-7a(5H)-yl)methoxy)-8-fluoro-4-(1-((methoxy-d3)methyl)-3,8-diazabicyclo[3.2.1]octan-3-yl)pyrido[4,3-d]pyrimidin-7-yl)-5-ethynyl-6-fluoronaphthalen-2-ol] yielded an IC50 [1] of 22.9 nM and an IC50 [2] of 37.4 nM.

With `C#Cc1c(F)ccc2cc(O)cc(-c3ncc4c(N5CC6CCC(C(C)(C)O)(C5)N6)nc(OCC56CC(=C)CN5CC(=C)C6)nc4c3F)c12` (stereo not drawn) [Example 2, 4-(2-((2,6-dimethylenetetrahydro-1H-pyrrolizin-7a(5H)-yl)methoxy)-8-fluoro-4-(1-(2-hydroxypropan-2-yl)-3,8-diazabicyclo[3.2.1]octan-3-yl)pyrido[4,3-d]pyrimidin-7-yl)-5-ethynyl-6-fluoronaphthalen-2-ol] the IC50 [1] was 251 nM and the IC50 [2] was 48.2 nM.

Work on `C#Cc1c(F)ccc2cc(O)cc(-c3ncc4c(N5C[C@@H]6CC[C@](CC)(C5)N6)nc(OCC56CC(=C)CN5CC(=C)C6)nc4c3F)c12` [Example 5, 4-(2-((2,6-dimethylenetetrahydro-1H-pyrrolizin-7a(5H)-yl)methoxy)-4-((1R,5S)-1-ethyl-3,8-diazabicyclo[3.2.1]octan-3-yl)-8-fluoropyrido[4,3-d]pyrimidin-7-yl)-5-ethynyl-6-fluoronaphthalen-2-ol] yielded an IC50 [1] of 14.1 nM, an IC50 [2] of 16.5 nM and an IC50 [3] of 45.8 nM.

For `[2H]C([2H])([2H])C12CCC(CN(c3nc(OCC45CC(=C)CN4CC(=C)C5)nc4c(F)c(-c5cc(O)cc6ccc(F)c(C#C)c56)ncc34)C1)N2` (stereo not drawn) [Example 6, 4-(2-((2,6-dimethylenetetrahydro-1H-pyrrolizin-7a(5H)-yl)methoxy)-8-fluoro-4-(1-(methyl-d3)-3,8-diazabicyclo[3.2.1]octan-3-yl)pyrido[4,3-d]pyrimidin-7-yl)-5-ethynyl-6-fluoronaphtha len-2-ol], the IC50 [1] was 14.3 nM, the IC50 [2] was 3.2 nM and the IC50 [3] was 48.9 nM.

With `C#Cc1c(F)ccc2cc(O)cc(-c3ncc4c(N5CC6CCC(COC)(C5)N6)nc(OCC56CC(=C)CN5CC(=C)C6)nc4c3F)c12` (stereo not drawn) [Example 8, 4-(2-((2,6-dimethylenetetrahydro-1H-pyrrolizin-7a(5H)-yl)methoxy)-8-fluoro-4-(1-(methoxymethyl)-3,8-diazabicyclo[3.2.1]octan-3-yl)pyrido[4,3-d]pyrimidin-7-yl)-5-ethynyl-6-fluoronaphthalen-2-ol] the IC50 [1] was 36.8 nM.

`C#Cc1c(F)ccc2cc(O)cc(-c3ncc4c(N5C[C@@H]6CC[C@](C7CC7)(C5)N6)nc(OCC56CC(=C)CN5CC(=C)C6)nc4c3F)c12` [Example 12, 4-(4-((1S,5S)-1-cyclopropyl-3,8-diazabicyclo[3.2.1]octan-3-yl)-2-((2,6-dimethylenetetrahydro-1H-pyrrolizin-7a(5H)-yl)methoxy)-8-fluoropyrido[4,3-d]pyrimidin-7-yl)-5-ethynyl-6-fluoronaphthalen-2-ol] gave an IC50 [1] of 104 nM, an IC50 [2] of 102 nM and an IC50 [3] of 219 nM.

`[2H]C([2H])([2H])[C@@]12CC[C@@H](CN(c3nc(OC[C@@]45CCCN4C/C(=C\F)C5)nc4c(F)c(-c5cc(O)cc6ccc(F)c(C#C)c56)ncc34)C1)N2` [Example 53, 5-ethynyl-6-fluoro-4-(8-fluoro-2-(((S,Z)-2-(fluoromethylene)tetrahydro-1H-pyrrolizin-7a(5H)-yl)methoxy)-4-((1R,5S)-1-(methyl-d3)-3,8-diazabicyclo [3.2.1]octan-3-yl)pyrido[4,3-d]pyrimidin-7-yl)naphthalen-2-ol] showed an IC50 [1] of 1 nM and an IC50 [2] of 16.6 nM.

Compound `C#Cc1c(F)ccc2cc(O)cc(-c3ncc4c(N5C[C@@H]6CC[C@](COC)(C5)N6)nc(OC[C@@]56CCCN5C/C(=C/F)C6)nc4c3F)c12` [Example 82, 5-ethynyl-6-fluoro-4-(8-fluoro-2-(((S,E)-2-(fluoromethylene)tetrahydro-1H-pyrrolizin-7a (5H)-yl)methoxy)-4-((1R,5S)-1-(methoxymethyl)-3,8-diazabicyclo [3.2.1]octan-3-yl)pyrido[4,3-d]pyrimidin-7-yl)naphthalen-2-ol] has an IC50 [2] of 8.1 nM.

`[2H]C([2H])([2H])Oc1nc(-c2cc(O)cc3ccc(F)c(C#C)c23)c(F)c2nc(OCC34CC(=C)CN3CC(=C)C4)nc(N3CC4CCC(CC)(C3)N4)c12` (stereo not drawn) [Example 201, 4-(2-((2,6-dimethylenetetrahydro-1H-pyrrolizin-7a(5H)-yl)methoxy)-4-(1-ethyl-3,8-diazabicyclo[3.2.1]octan-3-yl)-8-fluoro-5-(methoxy-d3)pyrido[4,3-d]pyrimidin-7-yl)-5-ethynyl-6-fluoronaphthalen-2-ol] gave an IC50 [1] of 21.6 nM.

For `[2H]C([2H])([2H])Oc1nc(-c2cc(O)cc3ccc(F)c(C#C)c23)c(F)c2nc(OC[C@@]34CCCN3C/C(=C\F)C4)nc(N3CC4CCC(CC)(C3)N4)c12` (stereo partly drawn) [Example 204, 4-(4-(1-ethyl-3,8-diazabicyclo [3.2.1]octan-3-yl)-8-fluoro-2-(((S,Z)-2-(fluoromethylene)tetrahydro-1H-pyrrolizin-7a(5H)-yl)methoxy)-5-(methoxy-d3)pyrido [4,3-d]pyrimidin-7-yl)-5-ethynyl-6-fluoronaphthalen-2-ol], the IC50 [1] was 5.1 nM and the IC50 [2] was 3.9 nM.

For `[2H]C([2H])([2H])C([2H])([2H])[C@@]12CC[C@@H](CN(c3nc(OC[C@@]45CCCN4C/C(=C\F)C5)nc4c(F)c(-c5ccc(F)c6sc(N)c(C#N)c56)c(Cl)cc34)C1)N2` [Example 360, 2-amino-4-(6-chloro-4-((1R,5S)-1-(ethyl-d5)-3,8-diazabicyclo [3.2.1]octan-3-yl)-8-fluoro-2-(((S,Z)-2-(fluoromethylene)tetra-hydro-1H-pyrrolizin-7a(5H)-yl)methoxy)quinazolin-7-yl)-7-fluoro-benzo[b]thiophene-3-carbonitrile], the IC50 [2] was 20.2 nM.

Work on `C#Cc1c(F)ccc2cc(O)cc(-c3ncc4c(N5C[C@H]6CC[C@@H](C5)N6)nc(OC[C@@]56CCCN5C/C(=C\F)C6)nc4c3F)c12` [Reference Compound 1, 4-(4-((1R,5S)-3,8-diazabicyclo [3.2.1]octan-3-yl)-8-fluoro-2-(((S,Z)-2-(fluoromethylene)tetrahydro-1H-pyrrolizin-7a(5H)-yl)methoxy)pyrido[4,3-d]pyrimidin-7-yl)-5-ethynyl-6-fluoronaphthalen-2-ol, reference compound] yielded an AUC ([4]; iv, 2 mg/kg) of 688 ng·h/mL, a Cmax ([4]; iv, 2 mg/kg) of 1690 ng/mL and a half-life ([4]; iv, 2 mg/kg) of 10.5 h. For the same compound, the AUC ([4]; po, 10 mg/kg) was 82.6 ng·h/mL, the Cmax ([4]; po, 10 mg/kg) was 33.2 ng/mL and the bioavailability ([4]; po, 10 mg/kg) was 2.4%. For the same compound, the half-life ([4]; po, 10 mg/kg) was 2.6 h.

For `C#Cc1c(F)ccc2cc(O)cc(-c3ncc4c(N5C[C@H]6CC[C@@H](C5)N6)nc(OC[C@@]56CCCN5C/C(=C/F)C6)nc4c3F)c12` [Reference Compound 2, 4-(4-((1R,5S)-3,8-diazabicyclo [3.2.1]octan-3-yl)-8-fluoro-2-(((S,E)-2-(fluoromethylene)tetrahydro-1H-pyrrolizin-7a(5H)-yl)methoxy)pyrido[4,3-d]pyrimidin-7-yl)-5-ethynyl-6-fluoronaphthalen-2-ol, reference compound], the AUC ([4]; iv, 2 mg/kg) was 718 ng·h/mL, the Cmax ([4]; iv, 2 mg/kg) was 1350 ng/mL and the half-life ([4]; iv, 2 mg/kg) was 14.1 h. It also gave an AUC ([4]; po, 10 mg/kg) of 43.2 ng·h/mL, a Cmax ([4]; po, 10 mg/kg) of 27.7 ng/mL and a bioavailability ([4]; po, 10 mg/kg) of 1.2%. It also gave a half-life ([4]; po, 10 mg/kg) of 2.3 h.

Compound `C#Cc1c(F)ccc2cc(O)cc(-c3ncc4c(N5C[C@H]6CC[C@@H](C5)N6)nc(OC[C@@]56CCCN5CC(=C)C6)nc4c3F)c12` [Reference Compound 3, 4-(4-((1R,5S)-3,8-diazabicyclo [3.2.1]octan-3-yl)-8-fluoro-2-(((S)-2-methylenetetrahydro-1H-pyrrolizin-7a(5H)-yl)methoxy)pyrido[4,3-d]pyrimidin-7-yl)-5-ethynyl-6-fluoronaphthalen-2-ol, reference compound] has an AUC ([4]; po, 10 mg/kg) of 27.1 ng·h/mL, a Cmax ([4]; po, 10 mg/kg) of 10.7 ng/mL and a half-life ([4]; po, 10 mg/kg) of 2.6 h.
